Laboratory results taken from ChEMBL document CHEMBL1201862, “PubChem BioAssay data set” (2004).
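Grown in 96-well plates, cells were treated for 48 hours with each compound at five concentrations. Insufficient inhibition: endpoint recorded as highest concentration tested. Abbreviation: GI50, concentration required for 50% inhibition of growth.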 Activity calls are given as the source filed them. No stated cut-off is given here; in the data, active = GI50 up to about 1.1 µM and inactive = higher.

How the values were obtained:
Assay in all cases: NCI-60 cell line screen, 48 h
[1] = system: OVCAR-8
[2] = system: HT-29
[3] = system: OVCAR-3
[4] = system: UACC-62
[5] = system: SF-539
[6] = system: CCRF-CEM
[7] = system: HOP-62
[8] = system: SNB-19
[9] = system: SK-MEL-28
[10] = system: U-251
[11] = system: IGROV-1
[12] = system: MDA-N
[13] = system: A549
[14] = system: NCI/ADR-RES
[15] = system: 786-0
[16] = system: COLO 205
[17] = system: HCT-116
[18] = system: A498
[19] = system: SK-MEL-5
[20] = system: TK-10

Measured: GI50

Nn1c(=S)[nH]nc(/C=C/c2c(O)ccc3ccccc23)c1=O
inactive: [1] 1.78 µM | [2] 4.03 µM | [3] 3.13 µM | [4] 4.88 µM | [5] 19.3 µM | [6] 1.92 µM | [7] 11.6 µM | [8] 21.8 µM | [9] 8.95 µM | [10] 8.22 µM | [11] 1.64 µM | [12] 12.3 µM | [13] 6.78 µM | [14] 3.26 µM | [15] 5.46 µM | [16] 7.18 µM | [17] 3.32 µM | [18] 16.9 µM | [19] 10.2 µM

Sc1nc2c(c(-c3nc(S)nc4c3CCCCCCCCCC4)n1)CCCCCCCCCC2
inactive: [1] > 100 µM | [2] > 100 µM | [3] > 100 µM | [4] > 100 µM | [5] > 100 µM | [7] > 100 µM | [8] > 100 µM | [9] > 100 µM | [10] > 100 µM | [11] > 100 µM | [12] > 100 µM | [13] > 100 µM | [14] > 100 µM | [15] > 100 µM | [16] > 100 µM | [17] > 100 µM | [18] > 100 µM | [19] > 100 µM | [20] > 100 µM

Cc1ccc(C2(C)CC/C(=N/N=C3/CCC(C)(c4ccc(C)c(C)c4)c4cc(C)c(C)cc43)c3cc(C)c(C)cc32)cc1C (stereo not drawn)
inactive: [1] > 100 µM | [2] > 100 µM | [3] > 100 µM | [4] > 100 µM | [5] > 100 µM | [7] > 100 µM | [8] > 100 µM | [9] > 100 µM | [10] > 100 µM | [11] > 100 µM | [12] > 100 µM | [13] > 100 µM | [14] > 100 µM | [15] > 100 µM | [16] > 100 µM | [17] > 100 µM | [18] > 100 µM | [19] > 100 µM | [20] > 100 µM

COC(=O)[C@@]1(Cc2ccc(O)cc2)C[C@@H]2Cc3ccccc3N2N1
inactive: [1] 71.8 µM | [2] 35.5 µM | [3] > 100 µM | [4] 70.8 µM | [5] > 100 µM | [7] > 100 µM | [8] > 100 µM | [9] > 100 µM | [10] 57.1 µM | [11] 78 µM | [12] 44.8 µM | [13] 81.7 µM | [14] 31.8 µM | [15] > 100 µM | [16] 79.1 µM | [17] 65.3 µM | [18] 27.9 µM | [19] 34.5 µM | [20] > 100 µM

CN(C)CCCN1c2ccccc2CCc2cc([N+](=O)[O-])ccc21
inactive: [1] 15.7 µM | [2] 15.3 µM | [3] 17.9 µM | [4] 14.3 µM | [5] 15.1 µM | [7] 15.8 µM | [8] 16.9 µM | [10] 17.4 µM | [11] 15.6 µM | [12] 15 µM | [13] 19.9 µM | [14] 17.2 µM | [15] 15.2 µM | [16] 16.4 µM | [17] 15.7 µM | [18] 12.8 µM | [19] 12.9 µM | [20] 14.6 µM

O=C(OCc1ccccc1)N1CCCc2c(n(S(=O)(=O)c3ccccc3)c3ccccc23)C1
inactive: [1] > 100 µM | [2] > 100 µM | [3] > 100 µM | [4] > 100 µM | [5] > 100 µM | [7] > 100 µM | [8] > 100 µM | [9] > 100 µM | [10] > 100 µM | [11] > 100 µM | [12] > 100 µM | [13] > 100 µM | [14] > 100 µM | [15] > 100 µM | [16] > 100 µM | [17] > 100 µM | [18] > 100 µM | [19] > 100 µM | [20] > 100 µM
